Assay results reported in US9701669B2, “Preparation and use of 7a-amide substituted- 6,6-difluoro bicyclic himbacine derivatives as PAR-1 receptor antagonists” (Merck Sharp & Dohme Corp., priority 2013, dated 2017).
Like-named read-outs stand apart in the source and are kept apart here.

Legend:
[1] = target: PAR-1 receptor (Homo sapiens (Human), UniProt P25116); test: PAR-1 FLIPR Assay; type: cell-based; details: for IC50: HEK 293 cells, calcium signal after PAR-1 selective receptor-activating peptide at 80% activation
PAR-1 receptor, sequence (P25116 22-425): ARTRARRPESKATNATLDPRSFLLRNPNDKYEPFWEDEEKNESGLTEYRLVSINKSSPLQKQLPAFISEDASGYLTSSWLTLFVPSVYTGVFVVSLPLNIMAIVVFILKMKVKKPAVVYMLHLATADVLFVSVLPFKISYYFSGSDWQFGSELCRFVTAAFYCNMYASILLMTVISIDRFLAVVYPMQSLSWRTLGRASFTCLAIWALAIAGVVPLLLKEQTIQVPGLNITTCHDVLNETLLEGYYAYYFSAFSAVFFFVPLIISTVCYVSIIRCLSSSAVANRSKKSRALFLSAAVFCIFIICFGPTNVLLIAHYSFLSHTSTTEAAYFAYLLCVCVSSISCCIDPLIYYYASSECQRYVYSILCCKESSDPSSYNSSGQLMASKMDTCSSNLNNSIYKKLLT
Experimental: This assay measures the potency of the inventive compounds as PAR-1 receptor antagonists.
Frozen HEK 293 Cells were plated in 384-well PDL coated plates at 12000 cells/well in 50 uL of DMEM media containing 10% FBS, pen/strep/L-Glutamine and non-essential amino acids, incubated overnight at 37° C./5% CO2. Media was then removed from the cells, incubated with 33 ul of Calcium-5 dye in assay buffer (Hank's buffer containing 20 mM HEPES, 0.04% Chaps and 2.5 mM Probenecid) for 60 minutes at 37° C. 2 uL of varying concentrations of compound in 40% DMSO in assay buffer (final DMSO concentration is 2.3%) were then added to the cells and incubated at 25° C. for 30 minutes. […] The range of peptide was from 1.5-3 μM. The final volume was 40 uL/well, with 2% DMSO. […] The data were analyzed by taking the peak signal over a portion of the range of the 60 scans and dividing this signal by the minimum signal for that same range.

[2] = target: human Ether-á-go-go Related Gene (hERG) ion channel (Homo sapiens (Human), UniProt Q12809); test: MK-499 Filter Binding Assay
human Ether-á-go-go Related Gene (hERG) ion channel, sequence (Q12809 whole entry): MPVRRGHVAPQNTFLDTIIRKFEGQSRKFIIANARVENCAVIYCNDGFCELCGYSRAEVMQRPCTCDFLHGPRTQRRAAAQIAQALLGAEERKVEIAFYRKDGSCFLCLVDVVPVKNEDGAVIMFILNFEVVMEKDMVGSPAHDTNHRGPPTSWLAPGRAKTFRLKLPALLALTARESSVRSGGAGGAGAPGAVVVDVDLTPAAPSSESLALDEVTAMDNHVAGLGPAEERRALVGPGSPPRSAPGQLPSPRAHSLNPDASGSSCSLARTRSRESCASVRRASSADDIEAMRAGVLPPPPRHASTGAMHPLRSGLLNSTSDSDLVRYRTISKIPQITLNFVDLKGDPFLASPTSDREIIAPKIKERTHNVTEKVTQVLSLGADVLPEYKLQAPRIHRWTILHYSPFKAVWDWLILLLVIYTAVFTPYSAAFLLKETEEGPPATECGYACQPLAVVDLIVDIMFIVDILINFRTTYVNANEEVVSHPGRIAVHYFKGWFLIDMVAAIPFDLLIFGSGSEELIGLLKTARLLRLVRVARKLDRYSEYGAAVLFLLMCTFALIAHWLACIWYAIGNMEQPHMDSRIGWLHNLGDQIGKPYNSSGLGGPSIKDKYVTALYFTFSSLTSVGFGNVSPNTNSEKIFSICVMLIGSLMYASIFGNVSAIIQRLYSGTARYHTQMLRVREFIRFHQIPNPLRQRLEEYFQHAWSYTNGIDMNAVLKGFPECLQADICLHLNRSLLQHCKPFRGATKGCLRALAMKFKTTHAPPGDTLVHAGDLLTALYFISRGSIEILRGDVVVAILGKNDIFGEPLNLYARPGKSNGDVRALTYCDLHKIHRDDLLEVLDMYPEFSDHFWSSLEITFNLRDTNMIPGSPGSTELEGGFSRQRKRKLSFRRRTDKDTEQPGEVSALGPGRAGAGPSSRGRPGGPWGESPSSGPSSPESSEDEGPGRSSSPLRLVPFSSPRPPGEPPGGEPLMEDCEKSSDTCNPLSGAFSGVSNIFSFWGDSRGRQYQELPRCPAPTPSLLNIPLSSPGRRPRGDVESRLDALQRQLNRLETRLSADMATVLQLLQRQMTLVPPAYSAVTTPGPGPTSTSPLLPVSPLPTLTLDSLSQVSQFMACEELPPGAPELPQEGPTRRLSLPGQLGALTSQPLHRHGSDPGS
Experimental: This assay is used to evaluate the potential of a compound to cause drug-induced long QT syndrome.
Drug cardiac arrhythmia is an important safety concern for pharmaceutical development and health regulatory authorities.
Then, 30 μL wash buffer (10 mM HEPES/NaOH, pH 7.4, 130 mM NaCl, 2 mM MgCl2, 1 mM CaCl2) equilibrated to RT were added to each well of the assay plate and subsequently transferred to the filter plate. The assay mixture was aspirated through the filter plate using a Biotek ELx405™ washer. The filter plate was washed twice with 100 μl cold wash buffer per wash and well and then dried in a drying oven for at least 75 min at 55° C. Afterwards, the bottom of each filter plate was heat sealed with a solid foil seal, then 10 μL of Microscint™ 0 (Perkin Elmer) were added to each well of the filter plate and finally, the top of each filter plate was sealed with a clear seal. The plates were stored for at least 20 min in a MicroBeta2 reader (Perkin Elmer) before they are counted (60 sec/well).

[3] = membranes from HEK293 cell line expressing hERG, [35S]MK-0499 radioligand, read-out: MK499 IC50

SMILES | PAR-1 FLIPR IC50 ([1]; unit printed as 'mn' (apparent misprint of nM), same assay as E1, unit of the source corrected) [nM] | IC50 [2, 3] [nM] | IC50 [1] [nM] | IC50 ([2]; human, pH 7.4) [nM]
COC(C(N)=O)[C@@]12CC(F)(F)[C@@H](C)[C@H](/C=C/c3ccc(-c4ccccc4C#N)cn3)[C@@H]1[C@@H](C)OC2=O (mixture of isomers) [Example 19, (S and R)-2-((1R,3aR,6S,7R,7aS)-7-((E)-2-(5-(2-cyanophenyl)pyridin-2-yl)vinyl)-5,5-difluoro-1,6-dimethyl-3-oxooctahydroisobenzofuran-3a-yl)-2-methoxyacetamide] | 3.02 | 47700 | – | –
C[C@H]1OC(=O)[C@]2(C(O)C(N)=O)CC(F)(F)[C@@H](C)[C@H](/C=C/c3ccc(-c4ccccc4C#N)cn3)[C@H]12 (mixture of isomers) [Example 20, (S and R)-2-((1R,3aR,6S, 7R,7aS)-7-((E)-2-(5-(2-cyanophenyl)pyridin-2-yl)vinyl)-5,5-difluoro-1,6-dimethyl-3-oxooctahydro-isobenzofuran-3a-yl)-2-hydroxyacetamide] | – | – | 4.41 | –
C[C@H]1OC(=O)[C@]2(C(N)=O)CC(F)(F)[C@@H](C)[C@H](/C=C/c3ccc(-c4ccccc4C#N)cn3)[C@H]12 [Example 1, (1R,3aR,6S,7R,7aS)-7-((E)-2-(5-(2-cyanophenyl)pyridin-2-yl)vinyl)-5,5-difluoro-1,6-dimethyl-3-oxooctahydroisobenzofuran-3a-carboxamide] | – | – | 2.93 | –
Cc1cccc(-c2ccc(/C=C/[C@@H]3[C@@H]4[C@@H](C)OC(=O)[C@]4(C(N)=O)CC(F)(F)[C@H]3C)nc2)c1F [Example 2, (1R,3aR,6S,7R, 7aS)-5,5-difluoro-7-((E)-2-(5-(2-fluoro-3-methylphenyl)pyridin-2-yl)vinyl)-1,6-dimethyl-3-oxooctahydro-isobenzofuran-3a-carboxamide] | – | 13000 | 3.8 | –
Cc1c(F)cccc1-c1ccc(/C=C/[C@@H]2[C@@H]3[C@@H](C)OC(=O)[C@]3(C(N)=O)CC(F)(F)[C@H]2C)nc1 [Example 3, (1R,3aR, 6S,7R,7aS)-5,5-difluoro-7-((E)-2-(5-(3-fluoro-2-methylphenyl)pyridin-2-yl)vinyl)-1,6-dimethyl-3-oxooctahydro-isobenzofuran-3a-carboxamide] | – | 12000 | 1.37 | –
Cc1nc(/C=C/[C@@H]2[C@@H]3[C@@H](C)OC(=O)[C@]3(C(N)=O)CC(F)(F)[C@H]2C)ccc1-c1ccccc1C#N [Example 4, (1R,3aR,6S,7R, 7aS)-7-((E)-2-(5-(2-cyanophenyl)-6-methylpyridin-2-yl)vinyl)-5,5-difluoro-1,6-dimethyl-3-oxooctahydro-isobenzofuran-3a-carboxamide] | – | – | – | 60000
C[C@H]1OC(=O)[C@]2(CC(N)=O)CC(F)(F)[C@@H](C)[C@H](/C=C/c3ccc(-c4ccccc4C#N)cn3)[C@H]12 [Example 5, 2-((1R,3aR,6S,7R,7aS)-7-((E)-2-(5-(2-cyanophenyl)pyridin-2-yl)vinyl)-5,5-difluoro-1,6-dimethyl-3-oxooctahydroisobenzofuran-3a-yl)acetamide] | – | – | 3.14 | –
C[C@H]1OC(=O)[C@]2(C(N)=O)CC(F)(F)[C@@H](C)[C@H](/C=C/c3ccc(-c4cccc5c4OC(F)(F)O5)cn3)[C@H]12 [Example 10, (1R,3aR,6S,7R,7aS)-7-((E)-2-(5-(2,2-difluorobenzo[d][1,3]dioxol-4-yl)pyridin-2-yl)vinyl)-5,5-difluoro-1,6-dimethyl-3-oxooctahydroisobenzofuran-3a-carboxamide] | – | 15400 | 4.49 | –
C[C@H]1OC(=O)[C@]2(C(N)=O)CC(F)(F)[C@@H](C)[C@H](/C=C/c3ccc(-c4cccnc4C#N)cn3)[C@H]12 [Example 11] | – | 60000 | 9.68 | –
C[C@H]1OC(=O)[C@]2(N3CC(C(N)=O)C3)CC(F)(F)[C@@H](C)[C@H](/C=C/c3ccc(-c4ccccc4C#N)cn3)[C@H]12 [Example 12, 1-((1R,3aS,6S,7R,7aS)-7-((E)-2-(5-(2-cyanophenyl)pyridin-2-yl)vinyl)-5,5-difluoro-1,6-dimethyl-3-oxo-octahydroisobenzofuran-3a-yl)azetidine-3-carboxamide] | – | 16300 | 5.7 | –
C[C@H]1OC(=O)[C@]2(N3CC(C(N)=O)C3)CC(F)(F)[C@@H](C)[C@H](/C=C/c3ccc(-c4cccc(F)c4)cn3)[C@H]12 [Example 13, 1-((1R,3aS,6S, 7R,7aS)-5,5-difluoro-7-((E)-2-(5-(3-fluorophenyl)pyridin-2-yl)vinyl)-1,6-dimethyl-3-oxo-octahydro-isobenzofuran-3a-yl)azetidine-3-carboxamide] | – | – | 13.9 | –
C[C@H]1OC(=O)[C@]2(CCC(N)=O)CC(F)(F)[C@@H](C)[C@H](/C=C/c3ccc(-c4ccccc4C#N)cn3)[C@H]12 [Example 14, 3-((1R,3aR,6S,7R,7aS)-7-((E)-2-(5-(2-cyanophenyl)pyridin-2-yl)vinyl)-5,5-difluoro-1,6-dimethyl-3-oxooctahydroisobenzofuran-3a-yl)propanamide] | – | – | 4.4 | –
C[C@H]1OC(=O)[C@]2(CCC(N)=O)CC(F)(F)[C@@H](C)[C@H](/C=C/c3ccc(-c4cccnc4C#N)cn3)[C@H]12 [Example 15, 3-((1R,3aR,6S, 7R,7aS)-7-((E)-2-(2′-cyano-[3,3′-bipyridin]-6-yl)vinyl)-5,5-difluoro-1,6-dimethyl-3-oxooctahydro-isobenzofuran-3a-yl)propanamide] | – | – | 6.34 | 60000
COc1ncccc1-c1ccc(/C=C/[C@@H]2[C@@H]3[C@@H](C)OC(=O)[C@]3(CC(N)=O)CC(F)(F)[C@H]2C)nc1 [Example 16, 2-((1R,3aR,6S, 7R,7aS)-5,5-difluoro-7-((E)-2-(2′-methoxy-[3,3′-bipyridin]-6-yl)vinyl)-1,6-dimethyl-3-oxooctahydro-isobenzofuran-3a-yl)acetamide] | – | 25900 | 104 | –
C[C@H]1OC(=O)[C@]2(CC(N)=O)CC(F)(F)[C@@H](C)[C@H](/C=C/c3ccc(-c4cccnc4C#N)cn3)[C@H]12 [Example 17, 2-((1R,3aR,6S, 7R,7aS)-7-((E)-2-(2′-cyano-[3,3′-bipyridin]-6-yl)vinyl)-5,5-difluoro-1,6-dimethyl-3-oxooctahydro-isobenzofuran-3a-yl)acetamide] | – | – | 21.2 | –
C[C@H]1OC(=O)[C@]2(NCC(N)=O)CC(F)(F)[C@@H](C)[C@H](/C=C/c3ccc(-c4ccccc4C#N)cn3)[C@H]12 [Example 18, 2-(((1R,3aS,6S,7R,7aS)-7-((E)-2-(5-(2-cyanophenyl)pyridin-2-yl)vinyl)-5,5-difluoro-1,6-dimethyl-3-oxooctahydroisobenzofuran-3a-yl)amino)acetamide] | – | – | 4.3 | –
C[C@H]1OC(=O)[C@]2(C(C)(C)C(N)=O)CC(F)(F)[C@@H](C)[C@H](/C=C/c3ccc(-c4ccccc4C#N)cn3)[C@H]12 [Example 21, 2-((1R,3aR,6S,7R,7aS)-7-((E)-2-(5-(2-cyanophenyl)pyridin-2-yl)vinyl)-5,5-difluoro-1,6-dimethyl-3-oxooctahydroisobenzofuran-3a-yl)-2-methylpropanamide] | – | – | 17.1 | –
